Legend:
[1] = system: BaF3-CSF1R-1600 cells (express ETV6-CSF1R fusion protein); experiment: MTS cell viability assay, BaF3-CSF1R-1600; assay type: cell-based; details: 72 h, read-out: Cellular Proliferation Assay BaF3-CSF1R GI50
Outline: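 Cells seeded 16 h beforehand (10000 M-NFS-60 or 8000 BaF3-CSF1R-1600 per well), then exposed 72 h to test compounds in RPMI1640 with 10% FBS at 37 °C. Viability read by MTS absorbance at 490 nm; GI50 is the concentration giving 50% viability reduction versus DMSO vehicle.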

[2] = molecular target: T1, CSF1R kinase (recombinant N-terminal GST-CSF1R, residues L534-C972) (Homo sapiens, UniProt P07333); experiment: CSF1R Kinase-Glo assay; assay type: biochemical; details: 40 μM ATP, 30° C. 180 min, read-out: Enzymatic Assay CSF1R enzyme IC50
T1 construct: Recombinant N-terminal GST-CSF1R (CSF1R residues L534-C972) containing the CSFIR kinase domain; made in house; host or cells: Sf9 insect cells
T1 sequence (P07333 534-972): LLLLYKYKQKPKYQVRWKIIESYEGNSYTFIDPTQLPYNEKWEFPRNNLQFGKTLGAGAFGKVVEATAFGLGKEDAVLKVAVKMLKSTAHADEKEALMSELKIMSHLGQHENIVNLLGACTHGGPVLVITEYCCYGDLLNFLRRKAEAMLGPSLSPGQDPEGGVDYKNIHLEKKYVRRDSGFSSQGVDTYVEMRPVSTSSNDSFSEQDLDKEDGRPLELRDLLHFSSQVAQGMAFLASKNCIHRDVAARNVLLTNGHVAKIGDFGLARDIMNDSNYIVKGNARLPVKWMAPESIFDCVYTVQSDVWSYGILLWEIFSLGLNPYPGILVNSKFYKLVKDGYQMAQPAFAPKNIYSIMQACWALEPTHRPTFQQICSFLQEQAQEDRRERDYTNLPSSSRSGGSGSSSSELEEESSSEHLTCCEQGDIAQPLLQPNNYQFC
Outline: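 Sf9-expressed, purified GST-CSF1R kinase domain (600 ng) was incubated with compound for 180 min at 30° C. with 40 μM ATP and 20 μM poly(Glu,Tyr) 4:1 at pH 7.4 (Mn2+/Mg2+). Remaining ATP was read by Kinase-Glo Plus luminescence. IC50 was fitted from percentage inhibition versus no-compound controls across a concentration range.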

[3] = molecular target: Aurora B (Homo sapiens, UniProt Q96GD4); experiment: HotSpot kinase profiling, Aurora B; assay type: biochemical; details: HotSpot assay, 10 μM ATP; IC50 of kinase divided by that of CSF1R
Sequence of Aurora B (Q96GD4 whole entry): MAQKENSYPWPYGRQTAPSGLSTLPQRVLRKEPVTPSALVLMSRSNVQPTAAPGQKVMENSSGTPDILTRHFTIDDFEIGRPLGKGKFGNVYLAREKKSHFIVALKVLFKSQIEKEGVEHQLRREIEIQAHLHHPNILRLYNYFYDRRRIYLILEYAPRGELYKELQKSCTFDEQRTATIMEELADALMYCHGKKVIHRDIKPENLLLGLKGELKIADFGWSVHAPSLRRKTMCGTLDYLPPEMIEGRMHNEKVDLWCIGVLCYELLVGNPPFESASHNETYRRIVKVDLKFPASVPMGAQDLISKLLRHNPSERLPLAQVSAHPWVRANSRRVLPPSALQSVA
Experimental: More specifically, each compound was tested for inhibitory activity of CSF1R kinase, as compared to that of seven other kinases, i.e., Aurora A, Aurora B, tyrosine-protein kinase Kit (c-Kit), fms-like tyrosine kinase 3 (FLT3), platelet-derived growth factor receptor (PDGFR) A, PDGFR B, and discoidin domain receptor tyrosine kinase 1 (DDR1).
In vitro profiling of the kinase panel was performed at Reaction Biology Corporation (www.reactionbiology.com, Malvern, PA) using the “HotSpot” assay platform. Briefly, specific kinase/substrate pairs along with required cofactors were prepared in a reaction buffer containing 20 mM Hepes pH 7.5, 10 mM MgCl2, 1 mM EGTA, 0.02% Brij35, 0.02 mg/ml BSA, 0.1 mM NA3VO4, 2 mM DTT, and 1% DMSO. […] 20 minutes later, a mixture of ATP (Sigma, St. Louis MO) and ^33P ATP (Perkin Elmer, Waltham MA) was added to the resulting reaction solution to give a final concentration of 10 μM. The reaction was carried out at room temperature for 120 min., followed by spotting the reaction solution onto P81 ion exchange filter paper (Whatman Inc., Piscataway, NJ). Unbound phosphate was removed by extensive washing filters in 0.75% phosphoric acid. […] Selectivity, expressed as an IC50 ratio, was determined by dividing the IC50 value of a kinase, e.g., Aurora A, by that of CSF1R.

| Structure (SMILES) | GI50 [1] | IC50 [2] | IC50 ratio Aurora B / CSF1R [3] |
| --- | --- | --- | --- |
| CN(C)c1ccc2c(Oc3ccc(NC(=O)NCc4ccc(C(F)(F)F)nc4)cc3)ncnc2c1 [Compound 27, 1-(4-((7-(dimethylamino)quinazolin-4-yl)oxy)phenyl)-3-((6-(trifluoromethyl)pyridin-3-yl)methyl)urea] | 20 to 100 nM | < 20 nM | +++ (+++: 1000 > IC50 ratio > 100) |
| CN(C)c1ccc2c(Oc3ccc4c(ccn4C(=O)NCc4ccc(C(F)(F)F)nc4)c3)ncnc2c1 [Compound 67, 5-((7-(dimethylamino)quinazolin-4-yl)oxy)-N-((6-(trifluoromethyl)pyridin-3-yl)methyl)-1H-indole-1-carboxamide] | 20 to 100 nM | 20 to 100 nM | +++ (+++: 1000 > IC50 ratio > 100) |
